Legend:
[1] = Solubility in formaldehyde acetone crosslinking solution; type: physicochemical
Source text: While not wishing to be limited to any particular mechanism, it is believed that the crosslinking step accounts, in part, for the encapsulation efficiency.

[2] = Direct blending of unencapsulated medicament with cyanoacrylic ester (storage stability); type: physicochemical
Description: Adhesive formulations including unencapsulated antibiotics were investigated. The medicaments were vacuum dried for 6 hours at room temperature in the presence of phosphorous pentoxide to remove the residual water. Direct blending of the medicaments with cyanoacrylic ester was conducted in a drying chamber protected by a high-purity nitrogen atmosphere.

[3] = Release of medicament from solidified adhesive film into physiologic saline; type: physicochemical; settings: extract in physiologic saline, UV spectroscopy
Description: Samples of adhesive containing either encapsulated Penicillin G or unencapsulated Penicillin G were prepared as described above. Solidification of the adhesives was carried out in moist air so as to provide an accelerated solidification rate. The solidified adhesives having a thickness of about 1 mm were cut into small pieces which were immersed in physiologic saline at room temperature. The aqueous extracts were examined using UV spectroscopy.

[4] = Stability of medicament in aqueous solution or extract (UV, HPLC); settings: physiologic saline or aqueous solution
Source text: Because the UV spectra of DSP and the extractive aqueous solution of Super Glue™ have overlapped absorptions at 240 nm, the release behavior of cyanoacrylate adhesives containing DSP microcapsules was studied by HPLC instead of UV spectroscopy.

## COc1c(N2CCNC(C)C2)c(F)cc2c(=O)c(C(=O)O)cn(C3CC3)c12 (stereo not drawn) [Gatifloxacin]
[1]
  solubility in a formaldehyde acetone solution: relatively weak solubility
[2]; methyl cyanoacrylate (Super Glue) with dry powder, room temperature
  time to solidification after direct mixing: about 3 hours

## CC1(C)S[C@@H]2[C@H](NC(=O)Cc3ccccc3)C(=O)N2[C@H]1C(=O)[O-].[Na+] [Penicillin G, Penicillin G Sodium Salt]
[2]; unencapsulated medicament
  observation on direct mixing with Super Glue: Agglomeration was observed
[3]
  release from solidified adhesive film: no detectable release
[4]
  stability in aqueous solution / aqueous extract: observed to decompose during the release process

## Nc1ccc(S(N)(=O)=O)cc1 [Sulfanilamide, Sulfanilamidum Crystallinum Sterile]
[2]; direct blending under nitrogen
  shelf life of cyanoacrylate adhesives in the presence of unencapsulated medicament: more than 24 hours

Source: patent publication US20030044380A1, “Adhesive including medicament” (priority 2001, published 2003)
